From EP4356928A1, “NUCLEOSIDE DIPHOSPHATE OR DIPHOSPHONATE PRODRUGS, OR NUCLEOSIDE ANALOGUE DIPHOSPHATE OR DIPHOSPHONATE PRODRUGS” (Universität Hamburg, priority 2022, dated 2024) come the findings set out here.

Data set [1] concerns HIV-2 (ROD). As to the kind of experiment: Inhibition of HIV-2 replication in wild-type CEM/0 cell cultures. The class given is cell-based. The note with it: Human immunodeficiency virus 2, CCRF-CEM, read-out: Antiviral activity EC50 HIV-2 (ROD). The method, then:
(§1) All β-phosph(on)ate prodrug compounds were evaluated for their activity to inhibit the replication of HIV in HIV-1- and HIV-2-infected wild-type (CEM/0) cell cultures and in HIV-2-infected mutant thymidine kinase-deficient (CEM/TK^-) cell cultures (see Table 3).
(§2) Antiviral activity was determined in CD4^+ T-lymphocytes: 50% effective concentration (EC50 [µM]).

The nature of data set [2]: Cytotoxicity: inhibition of CD4+ T-cell (CEM) proliferation. The settings on record: human. The method, then:
(§3) In addition, a selectivity index (SI) was determined. The selectivity index is the ratio between cell toxicity and […], the ratio between cell toxicity (see Table 4) and EC50 CEM/TK^- (see right column of Table 3).
(§4) Table 4: Cytotoxicity (CC50 [µM]) and selectivity index (SI) of tested prodrug compounds.

The subject of data set [3] is CD4^+ T-cell (CEM). Described as above. The note with it: ratio between cell toxicity (CC50) and EC50 CEM/TK-. The procedure:
as §3, §4

For data set [4], the system named is HIV-1 (HE). As to the kind of experiment: Inhibition of HIV-1 replication in wild-type CEM/0 cell cultures. The settings on record: Human immunodeficiency virus 1, CCRF-CEM, read-out: Antiviral activity EC50 HIV-1 (HE). The class given is cell-based. The method, then:
as §1, §2

The subject of data set [5] is HIV-2 (ROD). The data set is described as follows: Inhibition of HIV-2 replication in thymidine kinase-deficient CEM/TK- cell cultures. The settings on record: for EC50: Human immunodeficiency virus 2, CEM-TK(-), read-out: Antiviral activity EC50 CEM/TK^- HIV-2 (ROD). The format is cell-based. The method, then: as §1, §2
A short description of data set [6]: Chemical stability (hydrolysis half-life) in phosphate-buffered saline, RP-18 HPLC. The format is physicochemical. The settings on record: phosphate buffer saline (PBS, pH 7.3); read-out: Half-lives PBS (converted). The procedure: (§5) Stability tests regarding a number of differently substituted β-phosphate and β-phosphonate nucleoside prodrugs were conducted. The chemical and biological stability was tested in different media (phosphate-buffered saline PBS (pH 7.3), pig liver esterase (PLE), CEM cell extracts) and rated by determining the half-live of these compounds. The products of the respective hydrolysis were detected by analytical RP-18 HPLC.
(§6) Results of the hydrolysis experiments in different media (PBS (pH = 7.3), PLE (pig liver esterase) in PBS, or CEM-T cell extracts) are shown in Table 2.
(§7) Table 2: Half-lives (in hours) of the β-phosph(on)ate prodrug compounds of the invention in phosphate buffer saline (PBS, pH 7.3), PLE (100 units/mL pig liver esterase in PBS) and CEM/0 cell extracts. n.d. = not determined.

Data set [7] can be described thus: Stability (hydrolysis half-life) against pig liver esterase in PBS, RP-18 HPLC. The class given is in vitro ADME. The settings on record: pH 7.3; 100 units/mL pig liver esterase in PBS; read-out: Half-lives PLE (converted). The procedure:
as §5, §6, §7

A short description of data set [8]: Stability (hydrolysis half-life) in CEM/0 cell extracts, RP-18 HPLC. The format is in vitro ADME. The settings on record: human, read-out: Half-lives CEM T cell extracts (converted). The procedure:
as §5, §6, §7

[9] abbreviates: CD4+ T-lymphocytes (CEM/0), mean ±SD of n=2-3.

Read-outs that look alike come from different tables or passages of the source.

With `Nc1nc(NC2CC2)c2ncn([C@H]3C=C[C@@H](CO)C3)c2n1` [ABC, abacavir, reference compound], the EC50 in data set [1] (setting [9]) turned out to be 3510 ± 3250 nM; in data set [4] (setting [9]) it was 9390 ± 2450 nM; in data set [5], 1980 ± 860 nM. For the same molecule, the CC50 in data set [2] was above 100000 nM. Besides, in data set [3], the “Selectivity index (SI)” value was above 50.

For the molecule `Cc1cn([C@H]2C[C@H](N=[N+]=[N-])[C@@H](CO)O2)c(=O)[nH]c1=O` [AZT, zidovudine, reference compound], the EC50 in data set [1] is 3.4 ± 2.1 nM; in data set [4] (setting [9]), 14 ± 8.5 nM; in data set [5] it was above 100000 nM. The molecule also returned a CC50 in data set [2] above 100000 nM. Further, in data set [3], the “Selectivity index (SI)” value was above 1.

Regarding `Cc1cn([C@H]2C[C@H](F)[C@@H](CO)O2)c(=O)[nH]c1=O` [FLT, alovudine, reference compound], the EC50 in data set [1] was 4.3 ± 1.7 nM; in data set [4] (setting [9]) it was 2.5 ± 2.9 nM; in data set [5], above 100000 nM. In addition, in data set [2], the CC50 was above 100000 nM.

Consider `CCCCCCCCCCCCCCCCCCOP(=O)(OCCCC)OP(=O)(O)OC[C@@H]1C=C[C@H](n2cc(C)c(=O)[nH]c2=O)O1` (some centres unmarked) [No 16], for which the values for the EC50 in data set [1], in data set [4] and in data set [5] were 4.4 ± 1.3 nM, 33 ± 22 nM and 1.1 nM, respectively. Further, the half-life was above 41.7 days in data set [6], above 150 h in data set [7] and above 18 h in data set [8]. Moreover, it took 41300 nM to reach half-maximal cytotoxicity in data set [2] (cem cells) (CC50). Further, in data set [5] (HIV-2 in CEM/TK- cells, versus d4T), the “improvement of antiviral activity as compared to the nucleoside analogue d4T” value amounted to 45.400 fold.

Turning to `CCCCCCCCCCCCCCCCCCOP(=O)(OCC(CC)CCCC)OP(=O)(O)OC[C@@H]1C=C[C@H](n2cc(C)c(=O)[nH]c2=O)O1` (some centres unmarked) [No 17], the EC50 in data set [1] was found to be 45 ± 46 nM; in data set [4] it was 71 ± 52 nM; in data set [5] it was 11 ± 0.71 nM. Moreover, the half-life in data set [6] is above 41.7 days. The molecule also yielded a CC50 in data set [2] (cem cells) of 46500 nM. For the same molecule, the “Selectivity index (SI)” value in data set [3] was determined as 4226.

Take `CCCCCCCCCCCCCCCCCCP(=O)(OCCCC)OP(=O)(O)OC[C@@H]1C=C[C@H](n2cc(C)c(=O)[nH]c2=O)O1` (some centres unmarked) [No 18]: the EC50 came out at 16 ± 8.3 nM in data set [1], 31 ± 27 nM in data set [4] and 2.1 ± 3.4 nM in data set [5]. The figures for the half-life in data set [6], in data set [7] and in data set [8] were above 125 days, above 150 h and above 40 h, respectively. The same molecule returned a CC50 in data set [2] (cem cells) of 42600 nM. Also, in data set [3], the “Selectivity index (SI)” value worked out at 20309.

As for `CCCCCCCCCCCCCCCCCCOP(=O)(OCCCC)OP(=O)(O)OC[C@H]1O[C@@H](n2cc(C)c(=O)[nH]c2=O)C[C@@H]1N=[N+]=[N-]` (some centres unmarked) [No 19], the EC50 in data set [1] was 25 ± 9 nM; in data set [4], 58 ± 50 nM; in data set [5] it was 43 ± 48 nM. Besides, the half-life was 42.8 days in data set [6], above 150 h in data set [7] and above 8 h in data set [8]. The molecule further showed a CC50 in data set [2] (cem cells) of 47800 nM. The “Selectivity index (SI)” value in data set [3] was determined as 1112.

Take `CCCCCCCCCCCCCCCCCCP(=O)(OCCCC)OP(=O)(O)OC[C@H]1O[C@@H](n2cc(C)c(=O)[nH]c2=O)C[C@@H]1N=[N+]=[N-]` (some centres unmarked) [No 20]: the EC50 in data set [1] was determined as 20 ± 8 nM; in data set [4] it was 87 ± 55 nM; in data set [5], 170 ± 130 nM. The half-life in data set [6] was above 83.3 days; in data set [7], above 150 h; in data set [8] it was above 18 h. The CC50 in data set [2] (cem cells) was 82700 nM. The “Selectivity index (SI)” value in data set [3] was 487.

In the case of `CCCCCCCCCCCCCCCCCCOP(=O)(OCCCC)OP(=O)(O)OC[C@H]1O[C@@H](n2cc(C)c(=O)[nH]c2=O)C[C@@H]1F` (some centres unmarked) [No 21], the EC50 worked out at 40 ± 28 nM in data set [1], 6.7 ± 2.1 nM in data set [4] and 17 ± 16 nM in data set [5]. Besides, the half-life in data set [6] is above 41.7 days; in data set [7] it was above 150 h; in data set [8], above 10 h. Also, in data set [2] (cem cells), the midpoint of cytotoxicity, the CC50, lay at 58600 ± 19400 nM. For the same molecule, the “Selectivity index (SI)” value in data set [3] is recorded as 3447.

For the molecule `CCCCCCCCCCCCCCCCCCP(=O)(OCCCC)OP(=O)(O)OC[C@H]1O[C@@H](n2cc(C)c(=O)[nH]c2=O)C[C@@H]1F` (some centres unmarked) [No 22], the EC50 was 42 ± 13 nM in data set [1], 6.3 ± 4.6 nM in data set [4] and 15 ± 4 nM in data set [5]. The half-life in data set [6] was above 83.3 days. The CC50 in data set [2] (cem cells) turned out to be 54300 ± 15200 nM. For the same molecule, the “Selectivity index (SI)” value in data set [3] turned out to be 3620.

Turning to `CCCCCCCCCCCCCCCCCCOP(=O)(OCCCC)OP(=O)(O)OC[C@H]1O[C@@H](n2ccc(=O)[nH]c2=O)C[C@@H]1F` (some centres unmarked) [No 23], the figures for the EC50 in data set [1], in data set [4] and in data set [5] were 150 ± 20 nM, 140 ± 71 nM and 210 ± 100 nM, respectively. Further, the half-life in data set [6] is 33.2 days. Moreover, the CC50 in data set [2] (cem cells) was found to be 44800 nM. Besides, in data set [3], the “Selectivity index (SI)” value is on record as 213.

Turning to `CCCCCCCCCCCCCCCCCCP(=O)(OCCCC)OP(=O)(O)OC[C@H]1O[C@@H](n2ccc(=O)[nH]c2=O)C[C@@H]1F` (some centres unmarked) [No 24], the EC50 came to 76 ± 77 nM in data set [1], 57 ± 9 nM in data set [4] and 51 ± 69 nM in data set [5]. The values for the half-life in data set [6], in data set [7] and in data set [8] were above 83.3 days, above 150 h and above 20 h, respectively. In data set [2] (cem cells), this molecule came in with a CC50 of 59100 ± 20800 nM. The “Selectivity index (SI)” value in data set [3] was 1159.

For `CCCCCCCCCCCCCCCCCCOP(=O)(OCCCC)OP(=O)(O)OC[C@@H]1C=C[C@H](n2cnc3c(NC4CC4)nc(N)nc32)C1` (some centres unmarked) [No 25], the values for the EC50 in data set [1], in data set [4] and in data set [5] were 8.7 ± 0.4 nM, 16 ± 4 nM and 3.1 ± 2.7 nM, respectively. The results for the half-life in data set [6], in data set [7] and in data set [8] were 2.33 days, 41 h and 6.7 h, respectively. Besides, the CC50 in data set [2] (cem cells) is 10500 ± 4600 nM. For the same molecule, the “Selectivity index (SI)” value in data set [3] was 3387.

`CCCCCCCCCCCCCCCCCCP(=O)(OCCCC)OP(=O)(O)OC[C@@H]1C=C[C@H](n2cnc3c(NC4CC4)nc(N)nc32)C1` (some centres unmarked) [No 26]: the figures for the EC50 in data set [1], in data set [4] and in data set [5] were 26 ± 18 nM, 34 ± 13 nM and below 1 nM, respectively. Further, the values for the half-life in data set [6], in data set [7] and in data set [8] were above 41.7 days, above 150 h and above 10 h, respectively. The molecule also gave a CC50 in data set [2] (cem cells) above 100000 nM. In addition, the “Selectivity index (SI)” value in data set [3] is on record as above 100000.

On to `Cc1cn([C@H]2C=C[C@@H](CO)O2)c(=O)[nH]c1=O` [d4T, stavudine, reference compound], for which the results for the EC50 in data set [1], in data set [4] and in data set [5] were 970 ± 500 nM, 330 ± 130 nM and above 50000 nM, respectively. In data set [2], this molecule showed a CC50 above 50000 nM. Besides, in data set [3], the “Selectivity index (SI)” value is above 1.

What is called CC50 is the concentration at which the toxic effect on the cells reaches its halfway point. A high value points to lower toxicity to the cells.
